Reference: patent US10617683B2, “Inhibitors of CRL4 ubiquitin ligase and uses thereof” (Cornell University, priority 2012, dated 2020)
Where a SMILES comes first, the peptide text is derived from it. The star is where a group is joined. Cbz = O=C(OCc1ccccc1)*

Tested on: DDB2 degradation by CUL4A in MEF cells expressing FLAG-tagged DDB2
Assay: cell-based assay for DDB2 degradation by CUL4A following UV
Design: species or system Mouse
Conditions: positive control, FIG. 2 lane 3
Source text: FIG. 2 is an image which depicts experimental data illustrating the results of a cell-based DDB2 degradation assay. The tested compounds, which are described in detail in FIGS. 7-11, included the following small molecule compounds: PZ-104 (lane 1); PZ-108 (lane 2); PZ-106 (lane 3); PZ-101 (lane 4); PZ-103 (lane 5); PZ-501 (lane 6); PZ-202 (lane 7); PZ-203 (lane 8); PZ-201 (lane 9); PZ-301 (lane 10); PZ-305 (lane 11); PZ-303 (lane 12); PZ-601 (lane 13); PZ-701 (lane 14); PZ-701 (lane 15); PZ-901 (lane 16); PZ-1001 (lane 17); PZ-1101 (lane 18); PZ-1201 (lane 19); PZ-401 (lane IV1); PZ-402 (lane IV2); and PZ-403 (IV3). MG132, a proteasome inhibitor that blocks UV-induced DDB2 degradation, was a positive control. Tubulin levels were determined by Western blotting as a loading control. […]
A cell-based assay for DDB2 degradation by CUL4A following exposure to UV light was used as a second validation assay to evaluate the hit compounds. […] Three hours post UV exposure, cells were lysed in 1×SDS buffer and protein concentrations were measured by the BCA kit. F-DDB2 levels were detected by SDS PAGE and Western blotting, and tubulin levels were used as loading control. […]

Q: How did the “UV-induced DDB2 degradation” value turn out when `CC(C)C[C@@H](C=O)NC(=O)[C@H](CC(C)C)NC(=O)[C@H](CC(C)C)NC(=O)OCc1ccccc1` [MG132] (Cbz-Leu-Leu-Leu-aldehyde) was run?
A: blocks
